Laboratory results: ChEMBL document CHEMBL1201862, “PubChem BioAssay data set” (2004)
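Five compound concentrations were applied to cells in 96-well plates for 48 hours; endpoints were derived by simple linear interpolation of the resulting dose-response curve. GI50 is the concentration that inhibits growth by half.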 Activity calls are given as the source filed them. No stated cut-off is given here; in the data, active = GI50 up to about 1.1 µM and inactive = higher.

Tests used:
Experiment in all cases: inhibition of tumour cell growth, NCI panel, 48 h
HCC 2998 = test system: HCC 2998
HCT-15 = test system: HCT-15
HOP-62 = test system: HOP-62
IGROV-1 = test system: IGROV-1
LOX IMVI = test system: LOX IMVI
M14 = test system: M14
MOLT-4 = test system: MOLT-4
NCI-H522 = test system: NCI-H522
RXF 393 = test system: RXF 393
SK-MEL-28 = test system: SK-MEL-28
SK-MEL-2 = test system: SK-MEL-2
SK-MEL-5 = test system: SK-MEL-5
SN12C = test system: SN12C
SNB-75 = test system: SNB-75
UACC-62 = test system: UACC-62
786-0 = test system: 786-0
HL-60 = test system: HL-60
SF-539 = test system: SF-539

Row | SMILES | GI50 (HCC 2998) | GI50 (HCT-15) [µM] | GI50 (HOP-62) | GI50 (IGROV-1) | GI50 (LOX IMVI) | GI50 (M14) | GI50 (MOLT-4) | GI50 (NCI-H522) | GI50 (RXF 393) | GI50 (SK-MEL-28) | GI50 (SK-MEL-2) | GI50 (SK-MEL-5) | GI50 (SN12C) | GI50 (SNB-75) | GI50 (UACC-62) | GI50 (786-0) | GI50 (HL-60) | GI50 (SF-539)
1 | CN1C(=O)CN2C(Cl)(Cl)C2(c2ccccc2F)c2cc([N+](=O)[O-])ccc21 (stereo not drawn) | 22.7 µM (inactive) | 41.4 | > 100 µM (inactive) | 63.8 µM (inactive) | 35.7 µM (inactive) | > 100 µM (inactive) | 17.3 µM (inactive) | > 100 µM (inactive) | 14.6 µM (inactive) | > 100 µM (inactive) | 38.2 µM (inactive) | 26.8 µM (inactive) | 25.2 µM (inactive) | 17.5 µM (inactive) | 28.6 µM (inactive) | – | – | –
2 | CC1(O)C=CC2CCC1C2O (stereo not drawn) | – | > 100 | > 100 µM (inactive) | > 100 µM (inactive) | 21.5 µM (inactive) | > 100 µM (inactive) | > 100 µM (inactive) | > 100 µM (inactive) | 87.5 µM (inactive) | > 100 µM (inactive) | > 100 µM (inactive) | > 100 µM (inactive) | > 100 µM (inactive) | > 100 µM (inactive) | > 100 µM (inactive) | 25.4 µM (inactive) | > 100 µM (inactive) | > 100 µM (inactive)
3 | O=[N+]([O-])c1ccc(C2SCc3nc4ccccc4n32)cc1 (stereo not drawn) | – | – | > 100 µM (inactive) | 19.8 µM (inactive) | 74.1 µM (inactive) | – | 28.1 µM (inactive) | – | 36.7 µM (inactive) | > 100 µM (inactive) | 60.1 µM (inactive) | 17.4 µM (inactive) | 56.1 µM (inactive) | – | 32.1 µM (inactive) | > 100 µM (inactive) | 43.9 µM (inactive) | > 100 µM (inactive)
4 | COc1ccc(OC)c2c1CC(C(=O)O)(C(=O)O)CC2=O | > 100 µM (inactive) | > 100 | > 100 µM (inactive) | > 100 µM (inactive) | > 100 µM (inactive) | > 100 µM (inactive) | > 100 µM (inactive) | – | > 100 µM (inactive) | > 100 µM (inactive) | > 100 µM (inactive) | > 100 µM (inactive) | > 100 µM (inactive) | > 100 µM (inactive) | > 100 µM (inactive) | > 100 µM (inactive) | > 100 µM (inactive) | –
5 | CC(C)N(C(=O)C12C3C4C1C1C4(C#N)C3C12C#N)C(C)C (stereo not drawn) | > 100 µM (inactive) | > 100 | > 100 µM (inactive) | > 100 µM (inactive) | – | > 100 µM (inactive) | > 100 µM (inactive) | – | > 100 µM (inactive) | > 100 µM (inactive) | – | > 100 µM (inactive) | > 100 µM (inactive) | – | > 100 µM (inactive) | > 100 µM (inactive) | – | > 100 µM (inactive)
6 | CC(=O)N/C(=C\c1ccccc1/C=C(\NC(C)=O)c1nc2cc(C)c(C)cc2[nH]1)c1nc2cc(C)c(C)cc2[nH]1 | – | > 10 | 14.2 µM (inactive) | 26.5 µM (inactive) | – | 9.84 µM (inactive) | 20.3 µM (inactive) | 1.73 µM (inactive) | – | 7.43 µM (inactive) | 22.1 µM (inactive) | 17.1 µM (inactive) | 17.1 µM (inactive) | 13.7 µM (inactive) | 15.6 µM (inactive) | 18.7 µM (inactive) | – | 19.7 µM (inactive)
7 | C=CCC12CC(=O)CCC1CC(=O)C2 (stereo not drawn) | > 100 µM (inactive) | > 100 | > 100 µM (inactive) | > 100 µM (inactive) | – | > 100 µM (inactive) | > 100 µM (inactive) | > 100 µM (inactive) | > 100 µM (inactive) | > 100 µM (inactive) | > 100 µM (inactive) | > 100 µM (inactive) | > 100 µM (inactive) | > 100 µM (inactive) | > 100 µM (inactive) | > 100 µM (inactive) | > 100 µM (inactive) | > 100 µM (inactive)
8 | CC(/C=C/c1ncccc1OCCCCCC(=O)O)=N\NC1=NCCN1 | > 100 µM (inactive) | > 100 | > 100 µM (inactive) | > 100 µM (inactive) | > 100 µM (inactive) | > 100 µM (inactive) | > 100 µM (inactive) | > 100 µM (inactive) | 68.1 µM (inactive) | > 100 µM (inactive) | > 100 µM (inactive) | – | > 100 µM (inactive) | – | > 100 µM (inactive) | – | > 100 µM (inactive) | > 100 µM (inactive)
9 | COc1ccc(C(=O)C(C(=O)CCC(=O)Nc2cccc(C(F)(F)F)c2)c2ccccc2)cc1 (stereo not drawn) | > 100 µM (inactive) | 78.5 | > 100 µM (inactive) | > 100 µM (inactive) | – | > 100 µM (inactive) | 43.1 µM (inactive) | 32.1 µM (inactive) | – | > 100 µM (inactive) | 96.8 µM (inactive) | 33.2 µM (inactive) | > 100 µM (inactive) | > 100 µM (inactive) | 91.8 µM (inactive) | > 100 µM (inactive) | 61.2 µM (inactive) | > 100 µM (inactive)
10 | Cc1ccc(C2C(Cl)C(=O)N2n2cnc3ccccc3c2=O)cc1 (stereo not drawn) | > 100 µM (inactive) | > 100 | > 100 µM (inactive) | > 100 µM (inactive) | > 100 µM (inactive) | > 100 µM (inactive) | 39.4 µM (inactive) | > 100 µM (inactive) | > 100 µM (inactive) | > 100 µM (inactive) | > 100 µM (inactive) | 82.2 µM (inactive) | > 100 µM (inactive) | 91.6 µM (inactive) | 99.8 µM (inactive) | > 100 µM (inactive) | 29.6 µM (inactive) | –
11 | O=NN(CCCl)C(=O)N[C@H]1CC[C@@H](CC(=O)O)CC1 | > 100 µM (inactive) | > 100 | > 100 µM (inactive) | > 100 µM (inactive) | > 54.2 µM (inactive) | – | 44 µM (inactive) | > 61.7 µM (inactive) | > 100 µM (inactive) | > 100 µM (inactive) | > 100 µM (inactive) | > 100 µM (inactive) | > 100 µM (inactive) | > 81.1 µM (inactive) | 35.2 µM (inactive) | – | 38.3 µM (inactive) | 45.7 µM (inactive)
12 | O=C(c1ccccc1)c1ccc2cccc(OC3OC(CO)C(O)C(O)C3O)c2n1 (stereo not drawn) | > 100 µM (inactive) | > 100 | > 100 µM (inactive) | > 100 µM (inactive) | > 100 µM (inactive) | > 100 µM (inactive) | > 100 µM (inactive) | > 100 µM (inactive) | > 100 µM (inactive) | > 100 µM (inactive) | > 100 µM (inactive) | > 100 µM (inactive) | > 100 µM (inactive) | 68.4 µM (inactive) | > 100 µM (inactive) | > 100 µM (inactive) | – | > 100 µM (inactive)
13 | COc1ccc(C2S/C(=C\c3ccc(O)cc3)C(=O)N2NC(=O)Cc2ccccc2)cc1 (stereo not drawn) | – | > 100 | > 100 µM (inactive) | > 100 µM (inactive) | > 100 µM (inactive) | > 100 µM (inactive) | > 100 µM (inactive) | > 100 µM (inactive) | > 100 µM (inactive) | > 100 µM (inactive) | > 100 µM (inactive) | > 100 µM (inactive) | > 100 µM (inactive) | 90.8 µM (inactive) | > 100 µM (inactive) | > 100 µM (inactive) | > 100 µM (inactive) | > 100 µM (inactive)
14 | CCNC1=Nc2ccccc2-n2c(nn3nc4ccccc4c23)N1CC | – | > 100 | > 100 µM (inactive) | > 100 µM (inactive) | > 100 µM (inactive) | > 100 µM (inactive) | 30.2 µM (inactive) | 72.4 µM (inactive) | > 100 µM (inactive) | 94.2 µM (inactive) | – | > 100 µM (inactive) | 77.4 µM (inactive) | > 100 µM (inactive) | > 100 µM (inactive) | > 100 µM (inactive) | 36.6 µM (inactive) | > 100 µM (inactive)
15 | C[C@@H]1CC2(C[C@@H](C)C3[C@@H](CC4(C)CCCC5C6=CC(O)(CC[C@]34C)OC6=CC(=O)OC5(C)C)O2)OC1=O (stereo partly drawn) | > 100 µM (inactive) | > 100 | – | > 100 µM (inactive) | > 100 µM (inactive) | > 100 µM (inactive) | > 100 µM (inactive) | > 100 µM (inactive) | > 100 µM (inactive) | > 100 µM (inactive) | > 100 µM (inactive) | > 100 µM (inactive) | > 100 µM (inactive) | 96.2 µM (inactive) | > 100 µM (inactive) | > 100 µM (inactive) | > 100 µM (inactive) | > 100 µM (inactive)
16 | COc1cc(C2c3cc4c(cc3[C@@H](Nc3ccc(C(=O)O)cc3)C3COC(=O)[C@H]23)OCO4)cc(OC)c1O (stereo partly drawn) | 28.4 µM (inactive) | 13.4 | 8.15 µM (inactive) | 17.8 µM (inactive) | 4.41 µM (inactive) | 20.7 µM (inactive) | 0.721 µM (active) | – | 9.35 µM (inactive) | 27.5 µM (inactive) | 30.4 µM (inactive) | 12.1 µM (inactive) | 31.7 µM (inactive) | 13.2 µM (inactive) | 10.6 µM (inactive) | – | 2.49 µM (inactive) | 6.56 µM (inactive)
17 | COC[C@@H]1Cc2cc(OC)c3c(c2[C@H](c2ccc(OC)c(OC)c2)[C@H]1COC)OCO3 [HYPOPHYLLANTHIN] | > 100 µM (inactive) | > 100 | – | > 100 µM (inactive) | > 100 µM (inactive) | 50 µM (inactive) | > 100 µM (inactive) | 55.7 µM (inactive) | 42.6 µM (inactive) | > 100 µM (inactive) | > 100 µM (inactive) | > 10 µM (inactive) | > 100 µM (inactive) | 28.1 µM (inactive) | > 100 µM (inactive) | – | > 100 µM (inactive) | 38.8 µM (inactive)
